Experimental data reported in BindingDB's records for doi:10.1021/jm000145g (University of Oxford, 2001).
Where a name gives a salt, the structure may show the parent alone.

The compounds below were run against Prostate-specific antigen (Homo sapiens) (UniProt P07288) (assay: Inhibition of Prostate specific antigen PSA (Serine Protease)).
Chain of Prostate-specific antigen (Homo sapiens) (P07288 whole entry, looked up): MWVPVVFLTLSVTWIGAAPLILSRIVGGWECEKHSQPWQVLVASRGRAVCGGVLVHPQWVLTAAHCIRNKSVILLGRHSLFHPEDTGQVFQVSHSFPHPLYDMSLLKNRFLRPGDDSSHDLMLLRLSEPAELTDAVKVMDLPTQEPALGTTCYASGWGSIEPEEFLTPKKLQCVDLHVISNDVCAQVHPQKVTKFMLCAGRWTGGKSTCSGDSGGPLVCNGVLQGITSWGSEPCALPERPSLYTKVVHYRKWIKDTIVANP

| SMILES | IC50 [µM] |
| --- | --- |
| O=C(OCc1ccccc1)[C@@H]1[C@H](Cc2ccc(O)cc2)C(=O)N1C(=O)c1ccccc1 [1-Benzoyl-3-(4-hydroxy-benzyl)-4-oxo-azetidine-2-carboxylic acid benzyl ester] | 9.14 |
| O=C(O)c1ccc(COC(=O)[C@@H]2[C@H](Cc3ccccc3)C(=O)N2C(=O)c2ccccc2)cc1 [1-Benzoyl-3-benzyl-4-oxo-azetidine-2-carboxylic acid 4-carboxy-benzyl ester] | 24.3 |
| NCc1ccc(COC(=O)[C@@H]2[C@H](Cc3ccccc3)C(=O)N2C(=O)Cc2cccc(C(=O)OCc3ccccc3)c2)cc1 [3-Benzyl-1-[2-(3-benzyloxycarbonyl-phenyl)-acetyl]-4-oxo-azetidine-2-carboxylic acid 4-aminomethyl-benzyl ester; TFA] | 1.34 |
| O=C(O)c1ccc(COC(=O)[C@@H]2[C@H](Cc3ccccc3)C(=O)N2C(=O)Cc2cccc(C(=O)O)c2)cc1 [3-Benzyl-1-[2-(3-carboxy-phenyl)-acetyl]-4-oxo-azetidine-2-carboxylic acid 4-carboxy-benzyl ester] | > 30 |
| Cc1ccc(S(=O)(=O)N2C(=O)[C@@H](Cc3ccccc3)[C@H]2C(=O)OCc2ccccc2)cc1 [3-Benzyl-4-oxo-1-(toluene-4-sulfonyl)-azetidine-2-carboxylic acid benzyl ester] | > 30 |
| O=C(OCc1ccccc1)c1cccc(CC(=O)N2C(=O)[C@@H](Cc3ccccc3)[C@H]2COC(=O)c2ccccc2)c1 [3-[2-(2-Benzoyloxymethyl-3-benzyl-4-oxo-azetidin-1-yl)-2-oxo-ethyl]-benzoic acid benzyl ester] | > 100 |
| O=C(OC[C@@H]1[C@H](Cc2ccccc2)C(=O)N1S(=O)(=O)c1ccccc1)c1ccccc1 [Benzoic acid 1-benzenesulfonyl-3-benzyl-4-oxo-azetidin-2-ylmethyl ester] | 3.08 |
| O=C(OC[C@@H]1[C@H](Cc2ccccc2)C(=O)N1C(=O)c1ccccc1)c1ccccc1 [Benzoic acid 1-benzoyl-3-benzyl-4-oxo-azetidin-2-ylmethyl ester] | 1.59 |
| O=C(OC[C@@H]1[C@H](Cc2ccccc2)C(=O)N1S(=O)(=O)c1ccc([N+](=O)[O-])cc1)c1ccccc1 [Benzoic acid 3-benzyl-1-(4-nitro-benzenesulfonyl)-4-oxo-azetidin-2-ylmethyl ester] | 11.5 |
| CCS(=O)(=O)N1C(=O)[C@@H](Cc2ccccc2)[C@H]1COC(=O)c1ccccc1 [Benzoic acid 3-benzyl-1-ethanesulfonyl-4-oxo-azetidin-2-ylmethyl ester] | 2.19 |
| Cc1ccc(S(=O)(=O)N2C(=O)[C@@H](Cc3ccccc3)[C@H]2COC(=O)c2ccccc2)cc1 [Benzoic acid 3-benzyl-4-oxo-1-(toluene-4-sulfonyl)-azetidin-2-ylmethyl ester] | 4.79 |
| O=C(O)c1ccc(C(=O)OC[C@@H]2[C@H](Cc3ccccc3)C(=O)N2C(=O)c2ccccc2)cc1 [Terephthalic acid mono-(1-benzoyl-3-benzyl-4-oxo-azetidin-2-ylmethyl) ester] | > 100 |
